From patent publication US20060069132A1, “Azolecarboxamide herbicides” (priority 2004, published 2006)

Legend:
large crabgrass [1] = test: Test A pre-/postemergence herbicide test; assay type: in vivo, Digitaria sanguinalis
Method in brief: (§1)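 Sandy loam soil given preemergence directed spray; plants at 2 to 10 cm, one- to two-leaf stage, sprayed to runoff postemergence, compounds in non-phytotoxic solvent with surfactant. Injury rated visually versus untreated controls after about ten greenhouse days, 0 (no effect) to 100 (complete control); dash means not tested.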

velvetleaf [2] = test: Test B pre-/postemergence herbicide test; assay type: in vivo, Abutilon theophrasti; conditions: for Velvetleaf plant response rating: postemergence
Method in brief: (§2)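 Plants compared with untreated controls 13–15 days post-treatment and given a visual 0–100 injury score. Applications: preemergence to seeds; postemergence at 1- to 4-leaf (2–18 cm); paddy species flooded, 2-leaf stage. Vehicle non-phytotoxic, surfactant included.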

large crabgrass [3] = test: Test B pre-/postemergence herbicide test; assay type: in vivo, Digitaria sanguinalis; conditions: for Crabgrass, Large plant response rating: postemergence
Method in brief: as §2

morningglory [4] = test: Test B pre-/postemergence herbicide test; assay type: in vivo, Ipomoea coccinea; conditions: for Morningglory plant response rating: postemergence
Method in brief: (§3)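 Pre: seeds sown, then sprayed. Post: 1–4-leaf plants (2–18 cm) sprayed at the same time. Paddy: flooded, treated at 2-leaf stage. Formulation: non-phytotoxic solvent with surfactant. Greenhouse 13–15 days; visual 0–100 score relative to controls.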

cocklebur = test: Test B pre-/postemergence herbicide test; assay type: in vivo, Xanthium strumarium; conditions: for Cocklebur plant response rating: postemergence
Method in brief: as §3

barnyardgrass [5] = test: Test B pre-/postemergence herbicide test; assay type: in vivo, Echinochloa crus-galli; conditions: for Barnyardgrass plant response rating: postemergence
Method in brief: as §3

giant foxtail [6] = test: Test A pre-/postemergence herbicide test; assay type: in vivo, Setaria faberi
Method in brief: as §1

lambsquarters = test: Test B pre-/postemergence herbicide test; assay type: in vivo, Chenopodium album; conditions: postemergence
Method in brief: as §2

morningglory [7] = test: Test A pre-/postemergence herbicide test; assay type: in vivo, Ipomoea spp.
Method in brief: as §1

blackgrass = test: Test B postemergence herbicide test; assay type: in vivo, Alopecurus myosuroides; conditions: postemergence
Method in brief: (§4)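 Read-out: visual comparison with controls, scored 0 to 100, where 100 means complete control and 0 no effect. Formulated chemicals were applied postemergence to plants 2–18 cm tall (1- to 4-leaf), or to flooded-paddy plants at the 2-leaf stage, then held 13 to 15 days under glass.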

redroot pigweed = test: Test A pre-/postemergence herbicide test; assay type: in vivo, Amaranthus retroflexus
Method in brief: as §1

rice [8] = test: Test B pre-/postemergence herbicide test; assay type: in vivo, Oryza sativa; conditions: 0 = no effect, 100 = complete control, preemergence
Method in brief: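 Greenhouse pot assay with simultaneous preemergence (treated seed) and postemergence (2–18 cm seedlings) applications of surfactant-containing, non-phytotoxic solvent formulations. Response scored visually 13–15 days later on a 0–100 scale, 100 meaning complete control.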

rice [9] = test: Test B flooded paddy test; assay type: in vivo, Oryza sativa; conditions: 1000 g ai/ha, scale 0 to 100 (0 no effect, 100 complete control)
Method in brief: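 Formulated test chemicals went onto postemergence plants measuring 2 to 18 cm, at one to four leaves. For the paddy assay, species had reached two leaves. Scoring took place 13–15 days later by eye, relative to untreated plants, using 0 for no effect up to 100 for full control.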

giant foxtail [10] = test: Test B pre-/postemergence herbicide test; assay type: in vivo, Setaria faberi; conditions: for Foxtail, Giant plant response rating: postemergence
Method in brief: as §2

corn = test: Test B pre-/postemergence herbicide test; assay type: in vivo, Zea mays; conditions: for Corn plant response rating: postemergence
Method in brief: as §2

barnyardgrass [11] = test: Test A pre-/postemergence herbicide test; assay type: in vivo, Echinochloa crus-galli
Method in brief: as §1

barnyardgrass [12] = test: Test B flooded paddy test; assay type: in vivo, Echinochloa crus-galli; conditions: 1000 g ai/ha, scale 0 to 100 (0 no effect, 100 complete control)
Method in brief: as §4

[13] = tested on: small flower umbrella sedge; test: Test B flooded paddy test; assay type: in vivo, Cyperus difformis; conditions: 1000 g ai/ha, scale 0 to 100 (0 no effect, 100 complete control)
Method in brief: as §4

Surinam grass = test: Test B pre-/postemergence herbicide test; assay type: in vivo, Urochloa decumbens; conditions: for Surinam Grass plant response rating: postemergence
Method in brief: as §2

wheat = test: Test B postemergence herbicide test; assay type: in vivo, Triticum aestivum; design: key to Wheat plant response rating: 0 = no effect, 100 = complete control; conditions: postemergence
Method in brief: as §4

wild oat = test: Test B postemergence herbicide test; assay type: in vivo, Avena fatua; conditions: postemergence
Method in brief: as §4

ducksalad = test: Test B flooded paddy test; assay type: in vivo, Heteranthera limosa; conditions: 1000 g ai/ha, scale 0 to 100 (0 no effect, 100 complete control)
Method in brief: as §4

pigweed = test: Test B pre-/postemergence herbicide test; assay type: in vivo, Amaranthus retroflexus; conditions: for Pigweed plant response rating: postemergence
Method in brief: as §2

velvetleaf [14] = test: Test A pre-/postemergence herbicide test; assay type: in vivo, Abutilon theophrasti
Method in brief: as §1

[15] = Postemergence, 500 g ai/ha, 0 to 100 scale, 0 no effect, 100 complete control
[16] = Postemergence, 2000 g ai/ha, 0 to 100 scale, 0 no effect, 100 complete control
[17] = Preemergence, 2000 g ai/ha, visual rating, 0 to 100 scale (0 no effect, 100 complete control)
[18] = preemergence, 500 g ai/ha, visual injury, 0 to 100 scale (0 no effect, 100 complete control)
[19] = 125 g ai/ha, 0 = no effect, 100 = complete control, preemergence
[20] = 500 g ai/ha, visual rating, 0 = no effect, 100 = complete control, preemergence
[21] = 125 g ai/ha, visual rating, scale 0 (no effect) to 100 (complete control)
[22] = 500 g ai/ha, scale 0 to 100, 0 is no effect, 100 is complete control

CCn1nc(C(C)(C)C)cc1C(=O)Nc1cc(C(=O)N(C)C)c(F)cc1F [Compound 270]
Crabgrass, Large plant response rating (large crabgrass [1]; [15]): 0
Plant response rating, Crabgrass, Large (large crabgrass [1]; [16]): 10
Crabgrass, Large plant response rating (large crabgrass [1]; [17]): 35
Crabgrass, Large plant response rating (large crabgrass [1]; [18]): 5
Velvetleaf plant response rating (0 to 100 scale) (velvetleaf [2]; [19]): 50
Plant response rating, Velvetleaf (velvetleaf [2]; [20]): 70
Velvetleaf plant response rating (velvetleaf [2]; [21]): 0
Velvetleaf plant response rating (velvetleaf [2]; [22]): 0
Crabgrass, Large plant response rating (0 to 100 scale) (large crabgrass [3]; [19]): 0
Plant response rating, Crabgrass, Large (large crabgrass [3]; [20]): 20
Crabgrass, Large plant response rating (large crabgrass [3]; [21]): 0
Crabgrass, Large plant response rating (large crabgrass [3]; [22]): 0
Morningglory plant response rating (0 to 100 scale) (morningglory [4]; [19]): 0
Plant response rating, Morningglory (morningglory [4]; [20]): 0
Morningglory plant response rating (morningglory [4]; [21]): 0
Morningglory plant response rating (morningglory [4]; [22]): 10
Cocklebur plant response rating (0 to 100 scale) (cocklebur; [19]): 0
Plant response rating, Cocklebur (cocklebur; [20]): 0
Cocklebur plant response rating (cocklebur; [21]): 0
Cocklebur plant response rating (cocklebur; [22]): 0
Barnyardgrass plant response rating (0 to 100 scale) (barnyardgrass [5]; [19]): 0
Plant response rating, Barnyardgrass (barnyardgrass [5]; [20]): 50
Barnyardgrass plant response rating (barnyardgrass [5]; [21]): 0
Barnyardgrass plant response rating (barnyardgrass [5]; [22]): 0
Foxtail, Giant plant response rating (giant foxtail [6]; [15]): 0
Plant response rating, Foxtail, Giant (giant foxtail [6]; [16]): 0
Foxtail, Giant plant response rating (giant foxtail [6]; [17]): 70
Foxtail, Giant plant response rating (giant foxtail [6]; [18]): 20
Lambsquarters plant response rating (lambsquarters; [21]): 0
Lambsquarters plant response rating (lambsquarters; [22]): 10
Morningglory plant response rating (morningglory [7]; [15]): 20
Plant response rating, Morningglory (morningglory [7]; [16]): 20
Morningglory plant response rating (morningglory [7]; [17]): 30
Morningglory plant response rating (morningglory [7]; [18]): 0
Blackgrass plant response rating (blackgrass; [21]): 0
Blackgrass plant response rating (blackgrass; [22]): 20
Pigweed plant response rating (redroot pigweed; [15]): 20
Plant response rating, Pigweed (redroot pigweed; [16]): 0
Pigweed plant response rating (redroot pigweed; [17]): 85
Pigweed plant response rating (redroot pigweed; [18]): 15
Rice plant response rating (0 to 100 scale) (rice [8]; 125 g ai/ha): 0
Plant response rating, Rice (rice [8]; 500 g ai/ha, visual rating): 60
Rice plant response rating (rice [9]): 70
Foxtail, Giant plant response rating (0 to 100 scale) (giant foxtail [10]; [19]): 0
Plant response rating, Foxtail, Giant (giant foxtail [10]; [20]): 50
Foxtail, Giant plant response rating (giant foxtail [10]; [21]): 0
Foxtail, Giant plant response rating (giant foxtail [10]; [22]): 0
Corn plant response rating (0 to 100 scale) (corn; [19]): 0
Plant response rating, Corn (corn; [20]): 50
Corn plant response rating (corn; [21]): 0
Corn plant response rating (corn; [22]): 10
Barnyardgrass plant response rating (barnyardgrass [11]; [15]): 0
Plant response rating, Barnyardgrass (barnyardgrass [11]; [16]): 30
Barnyardgrass plant response rating (barnyardgrass [11]; [17]): 90
Barnyardgrass plant response rating (barnyardgrass [11]; [18]): 60
Barnyardgrass plant response rating (barnyardgrass [12]): 50
Sedge, Umbrella plant response rating [13]: 60
Surinam Grass plant response rating (0 to 100 scale) (Surinam grass; [19]): 0
Plant response rating, Surinam Grass (Surinam grass; [20]): 20
Surinam Grass plant response rating (Surinam grass; [21]): 0
Surinam Grass plant response rating (Surinam grass; [22]): 10
Wheat plant response rating (wheat; [21]): 0
Wheat plant response rating (wheat; [22]): 0
Oat, Wild plant response rating (wild oat; [21]): 0
Oat, Wild plant response rating (wild oat; [22]): 0
Ducksalad plant response rating (ducksalad): 70
Pigweed plant response rating (0 to 100 scale) (pigweed; [19]): 0
Pigweed plant response rating (pigweed; [21]): 0
Pigweed plant response rating (pigweed; [22]): 0
Velvetleaf plant response rating (velvetleaf [14]; [15]): 15
Plant response rating, Velvetleaf (velvetleaf [14]; [16]): 25
Velvetleaf plant response rating (velvetleaf [14]; [17]): 55
Velvetleaf plant response rating (velvetleaf [14]; [18]): 30
